B1: 10B6: rat anti-mouse endotrophin monoclonal antibody; light chain variable SEQ ID NO: 2, heavy chain variable SEQ ID NO: 4 (antibody, V domains shown)
VH: QVQLQQSGPELAKPGSSVKISCKASGYTFTSYEMHWIKQRPGQGLEWIGYIYPESGSTGYNEKFKGKATLTVDKSSPTAYMQLSSLTPDNSAVYFCTRGLRVLGYVMDVWGHGTSVTVSS
VL: DVQLTQSPSFLSASVGDRVTINCKASQNINKYLNWYQQKLGEAPKRLIYNTNNLQTGIPSRFSGSASGTDYTLTISSLHPEDFATYFCLQHSSLYTFGAGTKLELK

What was measured:
PyMT mice = assay: TZD and cisplatin treatment of FP635/PyMT (PyMT) mice; type: in vivo, mouse
Experimental: FIGS. 19A-19F. TZD augments cisplatin sensitivity and correlates with the COL6A3 levels. FIG. 19A. FP635/PyMT mice were given TZD containing chow (supply approx. 20 mg/kg/day, rosiglitazone) or normal-diet (ND) starting at 8-weeks of age, and cisplatin (1 mg/kg) or PBS treatment was initiated at 10 weeks of age (ip., 3 times/week) over the course of tumor progression. Tumor burden was monitored with a fluorescence scanner (IVIS, Caliper life science). Quantified results are represented as mean±SD (n=8-9/group). *p=0.04, ND/CIS vs. TZD/CIS by unpaired student t-test. Metastatic burden was determined by fluorescence signals in lung tissues. FIG. 19B. Primary cancer cells isolated from tumors in PyMT mice were implanted into WT mice. TZD were given 5 days prior to cisplatin treatment (1 mg/kg, every 5 days). Tumor volumes were determined by caliper measurement and represented as mean±SD (n=5-6/group). *p<0.05 and **p<0.001, ND/CIS vs. TZD/CIS by 2-way ANOVA. FIGS. 19C-19D. Total RNA was extracted from tumor tissues in each group. mRNA levels for collagens such as COL1A1, COL6A1, -A2, and -A3 (FIG. 19C), and EMT genes such as E-cadherin, N-cadherin, Vimentin, Snail, Slug, Twist1 and Twist2 (FIG. 19D) were determined by qRT-PCR and normalized with 36B4. Quantitative results represent mean±SD (n=7/group). *p<0.05, **p<0.01, ***p<0.001 ND/PBS vs. ND/CIS; ^###p<0.001 ND/CIS vs. TZD/CIS by 2-way ANOVA. FIGS. 19E-19F. EMT indices were determined by immunostaining with E-Cadherin (FIG. 19E) and Vimentin (FIG. 19F). Cytokeratin (epithelial cells) and DAPI (nucleus) were co-stained. Staining positive area was quantified (multiple images, n=5/group). **p=0.014 (E) and *p=0.015 (F), ND/CIS vs. TZD/CIS by unpaired student t-test. Scale bars: 100 μm.
FIGS. 23A-23B: TZD confers beneficial effects on cisplatin treatment in mammary tumors. Met-1 cancer cells (0.5×10^6 cells/mouse) were implanted into wild-type mice and TZD (20 mg/kg) was given by diet and cisplatin (1 mg/kg) was intraperitoneally (ip.) injected every 5 days from 30 days post implantation (n=8/group). ***p<0.001 vs. ND by 2-way ANOVA. Tumor tissues from PyMT mice given TZD or normal diet (ND) diet were histologically assessed. […] Data represent mean±SD (n=5/group). **p=0.0042 ND vs. TZD by unpaired student t-test. Scales: 50 μm. […] Data represent mean±SD (n=5/group). *p=0.002 ND vs. TZD by unpaired student t-test. Arrows indicate staining positive cells. Scales: 25 μm.
Cisplatin (sigma, 479306) was diluted to 1 mg/ml in PBS and was sonicated briefly before injection. […]
Infrared fluorescence expressing MMTV-PyMT mice (FP635/PyMT) were imaged by IVIS scanner (Caliper lifesciences) and signal intensity was analyzed with Living image v.3.2 (Caliper lifesciences).

tumors from PyMT mice = assay: allografts of PyMT tumor pieces, cisplatin with TZD or 10B6; type: in vivo; conditions: cisplatin 1 mg/kg every 5 days combined with TZD 20 mg/kg or 10B6 100 μg/mouse once a week; 2-months post implantation
Experimental: FIGS. 22A-22E. Neutralizing endotrophin activities with monoclonal antibodies sensitizes tumors to cisplatin treatment. FIG. 22A. Pieces of tumors from PyMT mice were implanted into wild-type hosts. Tumor-bearing mice were given cisplatin (1 mg/kg, ip., every 5 days) or PBS, combined with either TZD (20 mg/kg) or anti-endotrophin monoclonal antibodies (100 μg/mouse, once a week) for tumor progression. Tumor volumes were determined by caliper measurements. Data represent mean±SD (n=5/group). *p<0.05, **p<0.01, ***p<0.001 vs. Cisplatin by 2-way ANOVA. FIGS. 22B-22D. 4T1 (0.5×10^6/mouse) cells were xenografted in nude mice and monitored tumor growth (FIG. 22B) and metastasis (FIG. 22C). […] Tumor volumes were determined by caliper measurements. […] Metastatic burden was determined by measuring metastatic lesion area in lung tissues with H&E stains. Quantified data represent mean±SD (n=5/group). **p=0.0007 and *p=0.0209 vs. CIS/10B6 by unpaired student t-test. mRNA levels for EMT markers such as vimentin, snail, slug, twist1, twist2 and S100S4 were determined by RT-qPCR (FIG. 22D). […]
As a last step, therapeutic potential of a previously described endotrophin neutralizing antibody (clone 10B6) on cisplatin sensitivity was determined. […] Tumor regression was monitored for 2-months post implantation. […]

Molecule	EMT in tumor tissues (loss of E-cadherin or increase in vimentin) (PyMT mice; immunostaining)	metallothionein (MT) levels in tumor tissues (PyMT mice; immunostaining)	mRNA levels of COL6A3 in tumor tissues (PyMT mice; qRT-PCR)	mRNA levels for EMT transcription factors (Snail, Slug, Twist1) (PyMT mice; qRT-PCR, tumor tissues)	tumor growth / sensitization of the tumors to cisplatin treatment (tumors from PyMT mice)
N.N.[Cl][Pt][Cl] [cisplatin, cis-diammine-dichloro-platinum]	significant increase	significantly increased	significantly increased	significantly increased	–
B1	–	–	–	–	efficiently sensitize
